For 3 compounds, melting point and MIC results are on record in patent US7141583B2, “Oxazolidinone derivatives with antibiotic activity” (AstraZeneca AB, priority 2000, dated 2006).

Data set [1] has as its system Bacillus subtilis. In words: MIC by agar-dilution, Bacillus subtilis. The format is cell-based. The protocol:
(§1) The following results were obtained on a standard in-vitro test system. The activity is described in terms of the minimum inhibitory concentration (MIC) determined by the agar-dilution technique with an inoculum size of 10^4 CFU/spot. Typically, compounds are active in the range 0.01 to 256 μg/ml.

Data set [2] has as its system Staphylococcus aureus Oxford. In words: MIC by agar-dilution, Staphylococcus aureus Oxford. The class given is cell-based. The following applies: 37° C., 24 hours. The protocol:
as §1
(§2) Staphylococci were tested on agar, using an inoculum of 10^4 CFU/spot and an incubation temperature of 37° C. for 24 hours—standard test conditions for the expression of methicillin resistance.

In data set [3] the test system is Coagulase Negative Staphylococci MR (methicillin resistant). In words: MIC by agar-dilution, Coagulase Negative Staphylococci MR. The format is cell-based. As to conditions: 37° C., 24 hours. On the procedure: as §1, §2
In data set [4] the test system is Staphylococcus aureus MRQR (methicillin and quinolone resistant). In words: MIC by agar-dilution, Staphylococcus aureus MRQR. The class given is cell-based. As to conditions: 37° C., 24 hours. On the procedure: as §1, §2
Data set [5] concerns Haemophilus influenzae ARC446. In words: MIC, Haemophilus influenzae ARC446 (Mueller-Hinton broth). The following applies: Mueller-Hinton broth with hemin and NAD, 24 hours, 37° C. The format is cell-based. On the procedure: (§3) The following results were obtained on a standard in-vitro test system. The activity is described in terms of the minimum inhibitory concentration (MIC) determined by the agar-dilution technique with an inoculum size of 10^4 CFU/spot. Typically, compounds are active in the range 0.01 to 256 μg/ml. Streptococci and enterococci were tested on agar supplemented with 5% defibrinated horse blood, an inoculum of 10^4 CFU/spot and an incubation temperature of 37° C. in an atmosphere of 5% carbon dioxide for 48 hours—blood is required for the growth of some of the test organisms. Fastidious Gram negative organisms were tested in Mueller-Hinton broth, supplemented with hemin and NAD, grown aerobically for 24 hours at 37° C., and with an innoculum of 5×10^4 CFU/well.

The subject of data set [6] is Streptococcus pyogenes C203. In words: MIC by agar-dilution, Streptococcus pyogenes C203. The following applies: agar with 5% defibrinated horse blood, 5% carbon dioxide, 48 hours. The class given is cell-based. On the procedure: as §3
Data set [7] concerns Coagulase Negative Staphylococci MS (methicillin sensitive). In words: MIC by agar-dilution, Coagulase Negative Staphylococci MS. The class given is cell-based. As to conditions: 37° C., 24 hours. The protocol: as §1, §2
The test system of data set [8] is Staphylococcus aureus Novb. Res (Novobiocin resistant). In words: MIC by agar-dilution, Staphylococcus aureus Novb. Res. The class given is cell-based. As to conditions: 37° C., 24 hours. On the procedure:
as §1, §2

Data set [9] has as its system Enterococcus faecalis. In words: MIC by agar-dilution, Enterococcus faecalis. The following applies: agar with 5% defibrinated horse blood, 5% carbon dioxide, 48 hours. The class given is cell-based. On the procedure: as §3
The test system of data set [10] is Moraxella catarrhalis ARC445. In words: MIC, Moraxella catarrhalis ARC445 (Mueller-Hinton broth). The format is cell-based. The following applies: Mueller-Hinton broth with hemin and NAD, 24 hours, 37° C. On the procedure: as §3

Values after ≈ are worked out from the molar mass of the structure shown.

`CC(C)(C)c1ccc(N2C[C@H](Cn3ccnn3)OC2=O)cc1` [Example 41, (5R)-3-(4-t-Butylphenyl)-5-(1,2,3-triazol-1-ylmethyl)oxazolidin-2-one] showed a melting point of 140 to 142 °C.

On to `CSc1ccc(N2C[C@H](Cn3cccn3)OC2=O)cc1` [Example 43, (5R)-3-(4-Methylthiophenyl)-5-(pyrazol-1-ylmethyl)oxazolidin-2-one], for which the melting point fell in the range of 72 to 73 °C.

`O=C1O[C@@H](Cn2ccnn2)CN1c1cc(F)c(C2=CCS(=O)(=O)CC2)c(F)c1` [Example 44a, (5R)-3-(3,5-Difluoro-4-(3,6-dihydro-1,1-dioxo-2H-thiopyran-4-yl)phenyl)-5-(1,2,3-triazol-1-ylmethyl)oxazolidin-2-one]: the MIC in data set [1] was found to be 0.25 µg/mL (≈ 0.609 µM); in [2], 0.125 µg/mL (≈ 0.305 µM); in data set [3], 0.13 µg/mL (≈ 0.317 µM); in [4] it was 0.25 µg/mL (≈ 0.609 µM); in data set [5], 2 µg/mL (≈ 4.87 µM); in [6], 0.25 µg/mL (≈ 0.609 µM). Also, the MIC in [7] was determined as 0.06 µg/mL (≈ 0.146 µM); in [8], 0.25 µg/mL (≈ 0.609 µM); in [9], 0.25 µg/mL (≈ 0.609 µM); in data set [10] it was 2 µg/mL (≈ 4.87 µM).
